We go through 46 compounds from US6083944A, “Quinoline-containing α-ketoamide cysteine and serine protease inhibitors” (Cephalon, Inc., priority 1998, dated 2000).

One test has as its target T1, Recombinant human calpain I (Homo sapiens, UniProt P07384).
T1 construct: made in house
T1 sequence (P07384 1-714): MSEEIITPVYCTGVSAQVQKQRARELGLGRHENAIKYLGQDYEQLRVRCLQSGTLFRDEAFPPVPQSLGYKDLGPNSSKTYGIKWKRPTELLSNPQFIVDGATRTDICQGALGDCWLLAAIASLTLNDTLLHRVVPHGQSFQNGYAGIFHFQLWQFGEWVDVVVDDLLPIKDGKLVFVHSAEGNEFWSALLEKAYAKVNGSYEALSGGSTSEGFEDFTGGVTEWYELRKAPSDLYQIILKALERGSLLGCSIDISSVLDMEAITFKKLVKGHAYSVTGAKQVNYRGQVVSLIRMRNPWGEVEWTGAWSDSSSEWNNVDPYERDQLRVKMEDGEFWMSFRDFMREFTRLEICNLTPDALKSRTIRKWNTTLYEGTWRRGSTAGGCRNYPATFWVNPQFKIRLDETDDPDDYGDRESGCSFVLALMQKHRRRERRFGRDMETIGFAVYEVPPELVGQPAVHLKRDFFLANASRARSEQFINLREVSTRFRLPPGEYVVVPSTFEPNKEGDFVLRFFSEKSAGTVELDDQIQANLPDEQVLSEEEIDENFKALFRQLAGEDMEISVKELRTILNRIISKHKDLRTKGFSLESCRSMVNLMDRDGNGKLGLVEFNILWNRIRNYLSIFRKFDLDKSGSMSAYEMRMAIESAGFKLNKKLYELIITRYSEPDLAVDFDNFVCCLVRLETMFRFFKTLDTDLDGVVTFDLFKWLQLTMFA
Kind of test: Inhibition of calpain I (Succ-Leu-Tyr-MNA hydrolysis). The settings on record: Tables 2-4; pH 7.5. It is filed as biochemical. How it is done: To evaluate inhibitory activity, stock solutions (40 times concentrated) of each compound to be tested were prepared in 100% anhydrous DMSO and 5 μl of each inhibitor preparation was aliquoted into each of three wells of a 96-well plate. Recombinant human calpain I, prepared by the method of Meyer et al. (Biochem. J. 1996, 314: 511-519), was diluted into assay buffer (i.e., 50 mM Tris, 50 mM NaCl, 1 mM EDTA, 1 mM EGTA, and 5 mM β-mercaptoethanol, pH 7.5, including 0.2 mM Succ-Leu-Tyr-MNA), and 175 μl was aliquoted into the same wells containing the independent inhibitor stocks as well as to positive control wells containing 5 μl DMSO, but no compound. To start the reaction, 20 μl of 50 mM CaCl2 in assay buffer was added to all wells of the plate, excepting three, which were used as background signal baseline controls. Substrate hydrolysis was monitored every 5 minutes for a total of 30 minutes. Substrate hydrolysis in the absence of inhibitor was linear for up to 15 minutes.
Inhibition of calpain I activity was calculated as the percent decrease in the rate of substrate hydrolysis in the presence of inhibitor relative to the rate in its absence. Comparison between the inhibited and control rates was made within the linear range for substrate hydrolysis. The IC50 S of inhibitors (concentration yielding 50% inhibition) were determined from the percent decrease in rates of substrate hydrolysis in the presence of five to seven different concentrations of the test compound. The results were plotted as percent inhibition versus log inhibitor concentration, and the IC50 was calculated by fitting the data to the four-parameter logistic equation shown below using the program GraphPad Prism (GraphPad Software, Inc., San Diego, Calif.).
The parameters a, b, c, and d are defined as follows: a is % inhibition in the absence of inhibitor, b is the slope, c is the IC50, and d is the % inhibition at an infinite concentration of inhibitor.
A word on the IC50: it is the concentration needed to halve the response being measured. Take `O=C(NCCNS(=O)(=O)c1cccnc1)C(=O)C(Cc1ccccc1)NC(=O)c1cc(Cl)nc2ccccc12` (single isomer, unassigned) [Example 141]: the IC50 was 87 nM.

Consider `Cc1cc(C(=O)NC(Cc2ccccc2)C(=O)C(=O)NCCNS(=O)(=O)c2ccc(-c3ccccn3)s2)c2ccccc2n1` (single isomer, unassigned) [Example 142], for which the half-maximal inhibitory concentration (IC50) came out at 24 nM.

Regarding `COc1ccc2nc(C)cc(C(=O)NC(Cc3ccccc3)C(=O)C(=O)NCCNS(=O)(=O)c3ccc(-c4ccccn4)s3)c2c1` (single isomer, unassigned) [Example 143], the IC50 is 35 nM.

As to `C=CCNC(=O)C(=O)C(Cc1ccccc1)NC(=O)c1cc(C#Cc2ccccc2)nc2ccccc12` (stereo not shown) [Example 3], the IC50 was 210 nM.

As to `COC(CNC(=O)C(=O)C(Cc1ccccc1)NC(=O)c1cc(C#Cc2ccccc2)nc2ccccc12)OC` (stereo not shown) [Example 7], the IC50 worked out at 110 nM.

Consider `COCCOCCCNC(=O)C(=O)C(Cc1ccccc1)NC(=O)c1cc(C#Cc2ccccc2)nc2ccccc12` (stereo not shown) [Example 8], for which the IC50 was found to be 570 nM.

Consider `CCCCCCOCCOCCOCCNC(=O)C(=O)C(Cc1ccccc1)NC(=O)c1cc(C#Cc2ccccc2)nc2ccccc12` (stereo not shown) [Example 9], for which the IC50 amounted to 230 nM.

Turning to `O=C(NCCOCCO)C(=O)C(Cc1ccccc1)NC(=O)c1cc(C#Cc2ccccc2)nc2ccccc12` (stereo not shown) [Example 10], the IC50 turned out to be 630 nM.

Take `COCCNC(=O)C(=O)C(Cc1ccccc1)NC(=O)c1cc(C#Cc2ccccc2)nc2ccccc12` (stereo not shown) [Example 11]: the IC50 came to 480 nM.

As for `O=C(NC1CCCCNC1=O)C(=O)C(Cc1ccccc1)NC(=O)c1cc(C#Cc2ccccc2)nc2ccccc12` (stereo not shown) [Example 22], the IC50 stood at 78 nM.

With `CC(NC(=O)C(=O)C(Cc1ccccc1)NC(=O)c1cc(C#Cc2ccccc2)nc2ccccc12)c1ccccc1` (stereo not shown) [Example 27], the half-inhibitory concentration (IC50) is 510 nM.

With `O=C(NCc1ccc2c(c1)OCO2)C(=O)C(Cc1ccccc1)NC(=O)c1cc(C#Cc2ccccc2)nc2ccccc12` (stereo not shown) [Example 33], the IC50 stood at 388 nM.

Consider `O=C(NCCCCc1ccccc1)C(=O)C(Cc1ccccc1)NC(=O)c1cc(C#Cc2ccccc2)nc2ccccc12` (stereo not shown) [Example 34], for which the IC50 worked out at 227 nM.

Regarding `O=C(NCc1ccccc1)C(=O)[C@H](Cc1ccccc1)NC(=O)c1cc(C#Cc2ccccc2)nc2ccccc12` [Example 36], the IC50 was determined as 79 nM.

On to `NS(=O)(=O)c1ccc(CNC(=O)C(=O)C(Cc2ccccc2)NC(=O)c2cc(C#Cc3ccccc3)nc3ccccc23)cc1` (stereo not shown) [Example 39], for which the IC50 is 184 nM.

For the compound `O=C(NCCc1ccccc1)C(=O)C(Cc1ccccc1)NC(=O)c1cc(C#Cc2ccccc2)nc2ccccc12` (stereo not shown) [Example 43], the IC50 is 390 nM.

With `COc1ccc2[nH]cc(CCNC(=O)C(=O)C(Cc3ccccc3)NC(=O)c3cc(C#Cc4ccccc4)nc4ccccc34)c2c1` (stereo not shown) [Example 49], the IC50 is 160 nM.

As to `O=C(NCCCN1CCOCC1)C(=O)C(Cc1ccccc1)NC(=O)c1cc(C#Cc2ccccc2)nc2ccccc12` (stereo not shown) [Example 51], the IC50 amounted to 424 nM.

For `CC(=O)NCCNC(=O)C(=O)C(Cc1ccccc1)NC(=O)c1cc(C#Cc2ccccc2)nc2ccccc12` (stereo not shown) [Example 60], the IC50 came to 140 nM.

As to `O=C(NCCNC(=O)C(=O)C(Cc1ccccc1)NC(=O)c1cc(C#Cc2ccccc2)nc2ccccc12)NC12CC3CC(CC(C3)C1)C2` (stereo not shown) [Example 63], the IC50 was 257 nM.

On to `O=C(NCCNC(=O)C(=O)C(Cc1ccccc1)NC(=O)c1cc(C#Cc2ccccc2)nc2ccccc12)Nc1ccccc1` (stereo not shown) [Example 64], for which the IC50 stood at 67 nM.

Still in this test, the particulars now being: Tables 2-4; values in parentheses; at 10,000 nM.
For orientation: inhibition means the drop in the measured response relative to a control, in per cent. With `O=C(NCCNS(=O)(=O)c1ccccc1)C(=O)C(Cc1ccccc1)NC(=O)c1ccnc2ccccc12` (single isomer, unassigned) [Example 131], the inhibition at 10 µM was found to be 97%.

As for `C#CCNC(=O)C(=O)C(Cc1ccccc1)NC(=O)c1cc(C#Cc2ccccc2)nc2ccccc12` (stereo not shown) [Example 1], the inhibition at 10 µM worked out at 91%.

In the case of `O=C(NCC(F)(F)F)C(=O)C(Cc1ccccc1)NC(=O)c1cc(C#Cc2ccccc2)nc2ccccc12` (stereo not shown) [Example 2], the inhibition at 10 µM is 98%.

Take `O=C(NCC1CC1)C(=O)C(Cc1ccccc1)NC(=O)c1cc(C#Cc2ccccc2)nc2ccccc12` (stereo not shown) [Example 4]: the inhibition at 10 µM was determined as 100%.

`N#CCCNC(=O)C(=O)C(Cc1ccccc1)NC(=O)c1cc(C#Cc2ccccc2)nc2ccccc12` (stereo not shown) [Example 5]: the inhibition at 10 µM came out at 95%.

As to `O=C(NCCC1=CCCCC1)C(=O)C(Cc1ccccc1)NC(=O)c1cc(C#Cc2ccccc2)nc2ccccc12` (stereo not shown) [Example 6], the inhibition at 10 µM amounted to 89%.

In the case of `O=C(NCCCO)C(=O)C(Cc1ccccc1)NC(=O)c1cc(C#Cc2ccccc2)nc2ccccc12` (stereo not shown) [Example 12], the inhibition at 10 µM is 94%.

As for `O=C(NCCCCO)C(=O)C(Cc1ccccc1)NC(=O)c1cc(C#Cc2ccccc2)nc2ccccc12` (stereo not shown) [Example 13], the inhibition at 10 µM was 100%.

Consider `O=C(NCCCCCO)C(=O)C(Cc1ccccc1)NC(=O)c1cc(C#Cc2ccccc2)nc2ccccc12` (stereo not shown) [Example 14], for which the inhibition at 10 µM worked out at 98%.

As to `O=C(NC12CC3CC(CC(C3)C1)C2)C(=O)C(Cc1ccccc1)NC(=O)c1cc(C#Cc2ccccc2)nc2ccccc12` (stereo not shown) [Example 15], the inhibition at 10 µM came to 41%.

Turning to `O=C(NC(CO)Cc1ccccc1)C(=O)C(Cc1ccccc1)NC(=O)c1cc(C#Cc2ccccc2)nc2ccccc12` (stereo not shown) [Example 23], the inhibition at 10 µM was 75%.

As for `CC(C)(C)OC(=O)N=C(NCCCCC(CO)NC(=O)C(=O)C(Cc1ccccc1)NC(=O)c1cc(C#Cc2ccccc2)nc2ccccc12)NC(=O)OC(C)(C)C` (stereo not shown) [Example 25], the inhibition at 10 µM came to 42%.

On to `CC(NC(=O)C(=O)C(Cc1ccccc1)NC(=O)c1cc(C#Cc2ccccc2)nc2ccccc12)c1cccc2ccccc12` (stereo not shown) [Example 26], for which the inhibition at 10 µM was 31%.

As for `O=C(NC1CCCCC1O)C(=O)C(Cc1ccccc1)NC(=O)c1cc(C#Cc2ccccc2)nc2ccccc12` (stereo not shown) [Example 28], the inhibition at 10 µM stood at 61%.

In the case of `O=C(NC1CCCCC1)C(=O)C(Cc1ccccc1)NC(=O)c1cc(C#Cc2ccccc2)nc2ccccc12` (stereo not shown) [Example 30], the inhibition at 10 µM was found to be 85%.

As to `O=C(NCc1cccc([N+](=O)[O-])c1)C(=O)C(Cc1ccccc1)NC(=O)c1cc(C#Cc2ccccc2)nc2ccccc12` (stereo not shown) [Example 40], the inhibition at 10 µM worked out at 95%.

For `COc1ccc(CCNC(=O)C(=O)C(Cc2ccccc2)NC(=O)c2cc(C#Cc3ccccc3)nc3ccccc23)cc1OC` (stereo not shown) [Example 41], the inhibition at 10 µM was determined as 88%.

`O=C(NCC(c1ccccc1)c1ccccc1)C(=O)C(Cc1ccccc1)NC(=O)c1cc(C#Cc2ccccc2)nc2ccccc12` (stereo not shown) [Example 44]: the inhibition at 10 µM was 85%.

In the case of `O=C(NCc1cccnc1)C(=O)C(Cc1ccccc1)NC(=O)c1cc(C#Cc2ccccc2)nc2ccccc12` (stereo not shown) [Example 46], the inhibition at 10 µM was determined as 91%.

`O=C(NCc1ccncc1)C(=O)C(Cc1ccccc1)NC(=O)c1cc(C#Cc2ccccc2)nc2ccccc12` (stereo not shown) [Example 47]: the inhibition at 10 µM came to 98%.

`O=C(NCCCn1ccnc1)C(=O)C(Cc1ccccc1)NC(=O)c1cc(C#Cc2ccccc2)nc2ccccc12` (stereo not shown) [Example 50]: the inhibition at 10 µM was 84%.

Take `O=C(NCC1CCCO1)C(=O)C(Cc1ccccc1)NC(=O)c1cc(C#Cc2ccccc2)nc2ccccc12` (stereo not shown) [Example 54]: the inhibition at 10 µM was found to be 84%.

For `O=C(NC1Cc2ccccc2C1)C(=O)C(Cc1ccccc1)NC(=O)c1cc(C#Cc2ccccc2)nc2ccccc12` (stereo not shown) [Example 55], the inhibition at 10 µM was 60%.

Take `COc1ccc(C(=O)NCCNC(=O)C(=O)C(Cc2ccccc2)NC(=O)c2cc(C#Cc3ccccc3)nc3ccccc23)cc1` (stereo not shown) [Example 57]: the inhibition at 10 µM was 71%.

Turning to `O=C(NCCNC(=O)C(=O)C(Cc1ccccc1)NC(=O)c1cc(C#Cc2ccccc2)nc2ccccc12)Nc1ccc(Br)cc1` (stereo not shown) [Example 61], the inhibition at 10 µM worked out at 94%.
